In ChEMBL document CHEMBL1138408, “Molecular dynamics simulation of the P2Y14 receptor. Ligand docking and identification of a putative binding site of the distal hexose moiety” (Bioorg Med Chem Lett, 2007) one finds EC50 data, which are given here for two compounds.

The assay has as its target T1, P2Y purinoceptor 14 (Homo sapiens, UniProt Q15391).
T1 sequence (Q15391 whole entry): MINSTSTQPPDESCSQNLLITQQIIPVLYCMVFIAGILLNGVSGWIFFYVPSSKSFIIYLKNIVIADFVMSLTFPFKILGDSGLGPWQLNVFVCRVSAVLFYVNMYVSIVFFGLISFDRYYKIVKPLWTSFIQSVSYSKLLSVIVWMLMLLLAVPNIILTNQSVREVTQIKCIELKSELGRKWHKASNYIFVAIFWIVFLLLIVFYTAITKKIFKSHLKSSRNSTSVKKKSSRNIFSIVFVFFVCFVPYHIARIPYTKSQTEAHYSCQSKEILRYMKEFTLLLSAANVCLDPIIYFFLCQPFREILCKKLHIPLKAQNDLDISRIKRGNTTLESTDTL
In words: Agonist activity at human P2Y14 receptor expressed in COS7 cells assessed as stimulation of PLC. In kind it is functional, cell-based, COS-7.

Consider `O=C(O)[C@@H]1O[C@@H](OP(=O)(O)OP(=O)(O)OC[C@H]2O[C@@H](n3ccc(=O)[nH]c3=O)[C@H](O)[C@@H]2O)[C@@H](O)[C@H](O)[C@H]1O`, for which the EC50 was determined as 370 nM. As for `CC(=O)N[C@@H]1[C@H](OP(=O)(O)OP(=O)(O)OC[C@H]2O[C@@H](n3ccc(=O)[nH]c3=O)[C@H](O)[C@@H]2O)O[C@@H](CO)[C@H](O)[C@H]1O`, the EC50 (cos-7) amounted to 4380 nM.
